Laboratory results taken from patent US5674879A, “Compositions including and methods of using conformationally restricted angiotensin II antagonist” (G.D. Searle & Co., priority 1995, dated 1997).
pIC50: −log10 of the molar value. Like-named read-outs stand apart in the source and are kept apart here.

What was measured:
[1] = biological target: smooth muscle angiotensin II receptor; test: Assay A: Angiotensin II Binding Activity (displacement of 125I-angiotensin II, rat uterine membrane preparation); details: 50% displacement of specifically bound 125I-AII, rat uterine membranes, 25° C., 60 min, pH 7.5
Method: Assay A: Angiotensin II Binding Activity
Compounds of the invention were tested for ability to bind to the smooth muscle angiotensin II receptor using a rat uterine membrane preparation. Angiotensin II (AII) was purchased from Peninsula Labs. ^125 I-angiotensin II (specific activity of 2200 Ci/mmol) was purchased from Du Pont-New England Nuclear. Other chemicals were obtained from Sigma Chemical Co. This assay was carried out according to the method of Douglas et al [Endocrinology, 106, 120-124 (1980)]. Rat uterine membranes were prepared from fresh tissue. All procedures were carried out at 4° C. Uteri were stripped of fat and homogenized in phosphate-buffered saline at pH 7.4 containing 5 mM EDTA. The homogenate was centrifuged at 1500×g for 20 min., and the supernatant was recentrifuged at 100,000×g for 60 min. The pellet was resuspended in buffer consisting of 2 mM EDTA and 50 mM Tris-HCl (pH 7.5) to a final protein concentration of 4 mg/ml. Assay tubes were charged with 0.25 ml of a solution containing 5 mM MgCl2, 2 mM EDTA, 0.5% bovine serum albumin, 50 mM Tris-HCl, pH 7.5 and ^125 I-AII (approximately 10^5 cpm) in the absence or in the presence of unlabelled ligand. The reaction was initiated by the addition of membrane protein and the mixture was incubated at 25° C. for 60 min. The incubation was terminated with ice-cold 50 mM Tris-HCl (pH 7.5) and the mixture was filtered to separate membrane-bound labeled peptide from the free ligand. The incubation tube and filter were washed with ice-cold buffer. Filters were assayed for radioactivity in a Micromedic gamma counter. Nonspecific binding was defined as binding in the presence of 10 μM of unlabelled AII. Specific binding was calculated as total binding minus nonspecific binding. The receptor binding affinity of an AII antagonist compound was indicated by the concentration (IC50) of the tested AII antagonist which gives 50% displacement of the total specifically bound ^125 I-AII from the high affinity AII receptor. Binding data were analyzed by a nonlinear least-squares curve fitting program.

[2] = biological target: T1, rabbit aortic rings (angiotensin II contraction) (Oryctolagus cuniculus, UniProt P34976); test: Assay B: In Vitro Vascular Smooth Muscle Response for AII (rabbit aortic rings); type: cell-based, rabbit (male New Zealand white); details: rabbit aorta rings, antagonist 10^-5 M for 5 min, 37° C., read-out: Assay B pA2 (converted)
T1 construct: The thoracic aorta was removed, cleaned of adherent fat and connective tissue and then cut into 3-mm ring segments; from tissue; host or cells: rabbit thoracic aorta rings, endothelium removed
T1 sequence (P34976 1-359): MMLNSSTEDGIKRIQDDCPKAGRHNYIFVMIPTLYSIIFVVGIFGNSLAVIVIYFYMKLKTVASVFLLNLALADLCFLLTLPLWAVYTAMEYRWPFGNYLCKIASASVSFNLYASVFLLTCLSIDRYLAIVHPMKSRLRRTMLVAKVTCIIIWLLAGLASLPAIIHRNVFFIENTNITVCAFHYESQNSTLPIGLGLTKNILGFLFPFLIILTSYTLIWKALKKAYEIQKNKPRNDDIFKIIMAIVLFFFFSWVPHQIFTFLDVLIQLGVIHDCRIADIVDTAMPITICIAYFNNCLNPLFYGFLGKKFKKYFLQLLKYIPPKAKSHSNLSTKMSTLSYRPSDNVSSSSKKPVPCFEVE
Method: Assay B: In Vitro Vascular Smooth Muscle-Response for AII
The compounds of the invention were tested for antagonist activity in rabbit aortic rings. Male New Zealand white rabbits (2-2.5 kg) were sacrificed using an overdose of pentobarbital and exsanguinated via the carotid arteries. The thoracic aorta was removed, cleaned of adherent fat and connective tissue and then cut into 3-mm ring segments. The endothelium was removed from the rings by gently sliding a rolled-up piece of filter paper into the vessel lumen. The rings were then mounted in a water-jacketed tissue bath, maintained at 37° C., between moveable and fixed ends of a stainless steel wire with the moveable end attached to an FT03 Grass transducer coupled to a Model 7D Grass Polygraph for recording isometric force responses. The bath was filled with 20 ml of oxygenated (95% oxygen/5% carbon dioxide) Krebs solution of the following composition (mM): 130 NaCl, 15 NaHCO3, […], 1.2 NaH2 PO4, 1.2 MgSO4, 2.5 CaCl2, and 11.4 glucose. The preparations were equilibrated for one hour before approximately one gram of passive tension was placed on the rings. Angiotensin II concentration-response curves were then recorded (3×10^-10 to 1×10^-5 M). Each concentration of AII was allowed to elicit its maximal contraction, and then AII was washed out repeatedly for 30 minutes before rechallenging with a higher concentration of AII. Aorta rings were exposed to the test antagonist at 10^-5 M for 5 minutes before challenging with AII. Adjacent segments of the same aorta ring were used for all concentration-response curves in the presence or absence of the test antagonist. The effectiveness of the test compound was expressed in terms of pA2 values and were calculated according to H. O. Schild [Br. J. Pharmacol. Chemother., 2, 189-206 (1947)]. The pA2 value is the concentration of the antagonist which increases the IC50 value for AII by a factor of two. Each test antagonist was evaluated in aorta rings from two rabbits.

[3] = first of two values in the cell (rings from two rabbits)
[4] = second of two values in the cell (rings from two rabbits)

Compound	pIC50 [1]	Kb [2, 3]	Kb [2, 4]
CCCCc1ncc2n1[C@@H](c1ccc(-c3ccccc3-c3nn[nH]n3)cc1)CC[C@H]2CC(=O)O (relative stereo) [Example 20, 3-Butyl-5,6,7,8-tetrahydro-5-[2'-(1H-tetrazol-5-yl)[1,1'-biphenyl]-4-yl]imidazo[1,5-a]pyridin-cis-8-acetic acid]	6.62	129 nM	141 nM
CCCCc1nc(CCCC)n2c1C=CCC2c1ccc(-c2ccccc2-c2nnn[nH]2)cc1 (stereo not shown) [Example 1, 1,3-Dibutyl-5,6-dihydro-5-[2'-(1H-tetrazol-5-yl)[1,1'-biphenyl]-4-yl]imidazo[1,5-a]pyridine]	6.72	398 nM	537 nM
CCCCc1nc(CCCC)n2c1C=C(Br)CC2c1ccc(-c2ccccc2-c2nnn[nH]2)cc1 (stereo not shown) [Example 2, 7-Bromo-1,3-dibutyl-5,6-dihydro-5-[2'-(1H-tetrazol-5-yl)[1,1'-biphenyl]-4-yl]imidazo[1,5-a]pyridine]	5.68	1450 nM	263 nM
CCCCc1nc(CCCC)n2c1CCCC2c1ccc(-c2ccccc2-c2nnn[nH]2)cc1 (stereo not shown) [Example 3, 1,3-Dibutyl-5,6,7,8-tetrahydro-5-[2'-(1H-tetrazol-5-yl)[1,1'-biphenyl]-4-yl]imidazo[1,5-a]pyridine]	6.57	53.7 nM	224 nM
CCCCc1nc(CCCC)n2c1C(c1ccccc1)=CCC2c1ccc(-c2ccccc2-c2nnn[nH]2)cc1 (stereo not shown) [Example 6, 1,3-Dibutyl-5,6-dihydro-8-phenyl-5-[2'-(1H-tetrazol-5-yl)[1,1'-biphenyl]-4-yl]imidazo[1,5-a]pyridine]	5.55	–	–
CCCCc1nc(CCCC)n2c1C(=CC(=O)O)CCC2c1ccc(-c2ccccc2-c2nnn[nH]2)cc1 (stereo not shown) [Example 7, [1,3-Dibutyl-6,7-dihydro-5-[2'-(1H-tetrazol-5-yl)[1,1'-biphenyl]-4-yl]imidazo[1,5-a]pyridin-8(5H)-ylidene]acetic acid]	4.82	–	–
CCCCc1nc(CCCC)n2c1C=CCCC2c1ccc(-c2ccccc2-c2nnn[nH]2)cc1 (stereo not shown) [Example 10, 1,3-Dibutyl-6,7-dihydro-5-[2'-(1H-tetrazol-5-yl)[1,1'-biphenyl]-4-yl]-5H-imidazo[1,5-a]azepine]	6.48	–	–
CCCCc1ncc2n1C(c1ccc(-c3ccccc3-c3nnn[nH]3)cc1)CCC2=CC(=O)O (stereo not shown) [Example 16, [3-Butyl-6,7-dihydro-5-[2'-(1H-tetrazol-5-yl)[1,1'-biphenyl]-4-yl]imidazo[1,5-a]pyridin-8(5H)-ylidene]acetic acid]	6.36	7.76 nM	16.2 nM
CCCCc1ncc2n1C(c1ccc(-c3ccccc3-c3nnn[nH]3)cc1)CC=C2CC(=O)O (stereo not shown) [Example 18, 3-Butyl-5,6-dihydro-5-[2'-(1H-tetrazol-5-yl)[1,1'-biphenyl]-4-yl]imidazo[1,5-a]pyridin-8-acetic acid]	6.70	–	–

The next compounds have a higher pIC50 [1] than those just listed; values first:

pIC50 [1]	Kb [2, 3]	Kb [2, 4]	Compound
7.64	100 nM	138 nM	CCCCc1ncc2n1[C@@H](c1ccc(-c3ccccc3-c3nn[nH]n3)cc1)CC[C@H]2O (relative stereo) [Example 13, 3-Butyl-5,6,7,8-tetrahydro-5-[2'-(1H-tetrazol-5-yl)[1,1'-biphenyl]-4-yl]imidazo[1,5-a]pyridin-cis-8-ol]
6.92	331 nM	550 nM	CCCCc1ncc2n1[C@@H](c1ccc(-c3ccccc3-c3nn[nH]n3)cc1)CC[C@@H]2O (relative stereo) [Example 14, 3-Butyl-5,6,7,8-tetrahydro-5-[2'-(1H-tetrazol-5-yl)[1,1'-biphenyl]-4-yl]imidazo[1,5-a]pyridin-trans-8-ol]
7.17	70.8 nM	141 nM	CCCCc1ncc2n1[C@@H](c1ccc(-c3ccccc3-c3nn[nH]n3)cc1)CC[C@H]2CC(=O)OC(C)(C)C (relative stereo) [Example 19, 1,1-Dimethylethyl 3-butyl-5,6,7,8-tetrahydro-5-[2'-(1H-tetrazol-5-yl)[1,1'-biphenyl]-4-yl]imidazo[1,5-a]pyridin-cis-8-acetate]
7.44	–	–	CCCCc1ncc2n1[C@H](c1ccc(-c3ccccc3-c3nnn[nH]3)cc1)CC[C@@H]2OCc1ccccc1 (relative stereo) [Example 24, 3-Butyl-5,6,7,8-tetrahydro-5-[2'-(1H-tetrazol-5-yl)[1,1'-biphenyl]-4-yl]-cis-8-phenylmethoxy-imidazo[1,5-a]pyridine]
7.29	22.4 nM	14.5 nM	CCCCc1nc(CCCC)n2c1C(O)CCC2c1ccc(-c2ccccc2-c2nnn[nH]2)cc1 (stereo not shown) [Example 4, 1,3-Dibutyl-5,6,7,8-tetrahydro-5-[2'-(1H-tetrazol-5-yl)[1,1'-biphenyl]-4-yl]imidazo[1,5-a]pyridin-8-ol]
7.22	13.8 nM	7.08 nM	CCCCc1nc(CCCC)n2c1C(=O)CCC2c1ccc(-c2ccccc2-c2nn[nH]n2)cc1 (stereo not shown) [Example 5, 1,3-Dibutyl-5,6-dihydro-5-[2'-(1H-tetrazol-5-yl)[1,1'-biphenyl]-4-yl]imidazo[1,5-a]pyridin-8(5H)-one]
7.57	–	–	CCCCc1nc(CCCC)n2c1C(N1C(=O)CCC1=O)CCC2c1ccc(-c2ccccc2-c2nnn[nH]2)cc1 (stereo not shown) [Example 8, 1-[1,3-Dibutyl-5,6,7,8-tetrahydro-5-[2'-(1H-tetrazol-5-yl)[1,1'-biphenyl]-4-yl]imidazo[1,5-a]pyridin-8-yl]-2,5-pyrrolidinedione]
7.36	70.8 nM	57.5 nM	CCCCc1nc(CCCC)n2c1C(NC(=O)CCC(=O)NN)CCC2c1ccc(-c2ccccc2-c2nn[nH]n2)cc1 (stereo not shown) [Example 9]
6.92	–	–	CCCCc1ncc2n1C(c1ccc(-c3ccccc3-c3nnn[nH]3)cc1)CC=C2 (stereo not shown) [Example 11, 3-Butyl-5,6-dihydro-5-[2'-(1H-tetrazol-5-yl)[1,1'-biphenyl]-4-yl]imidazo[1,5-a]pyridine]
6.96	219 nM	89.1 nM	CCCCc1ncc2n1C(c1ccc(-c3ccccc3-c3nn[nH]n3)cc1)CCC2=O (stereo not shown) [Example 12, 3-Butyl-5,6-dihydro-5-[2'-(1H-tetrazol-5-yl)[1,1'-biphenyl]-4-yl]imidazo[1,5-a]pyridin-8(5H)-one]
6.80	347 nM	186 nM	CCCCc1ncc2n1C(c1ccc(-c3ccccc3-c3nnn[nH]3)cc1)CCC2=CC(=O)OC(C)(C)C (stereo not shown) [Example 15, 1,1-Dimethylethyl [3-butyl-6,7-dihydro-5-[2'-(1H-tetrazol-5-yl)[1,1'-biphenyl]-4-yl]imidazo[1,5-a]pyridin-8(5H)-ylidene]acetate]
